The conditions of data set [1]: cited from earlier work.
A short description of data set [2]: water solubility in aqueous buffer under physiological conditions. Type of data set: physicochemical. Conditions: prodrug versus parent compound of formula IV, same conditions.

Molecules are shown by their SMILES.

Regarding `COc1cc(Nc2ncc(F)c(Nc3ccc4c(n3)N(COP(=O)(O)O)C(=O)C(C)(C)O4)n2)cc(OC)c1OC` [compound of formula II], the solubility entry in data set [1] (aqueous buffer under physiological conditions (same conditions as formula IV)) was “greater than 5 mg/mL”. In data set [2], the “solubility relative to compound of formula IV (times greater)” value was “approximately 2000 times”.

Consider `COc1cc(Nc2ncc(F)c(Nc3ccc4c(n3)NC(=O)C(C)(C)O4)n2)cc(OC)c1OC` [compound of formula IV], for which, in data set [1] (aqueous buffer under physiological conditions), the water solubility was 1 to 2 µg/mL.

The record behind these values is US8481724B2, “Synthesis of 2,4-pyrimidinediamines” (Rigel Pharmaceuticals, Inc., priority 2009, dated 2013).
